Data: article PMC8611673 (JACS Au, 2021)

Test system: HeLa 654 cells
Assay: EGFP assay with chemical endocytosis inhibitors
Assay type: cell-based, human
Settings: higher concentrations of the inhibitor

Structure (SMILES) | toxicity of the inhibitor to HeLa 654 cells
C=C1[C@@H](C)[C@H]2[C@H](Cc3ccccc3)NC(=O)[C@]23[C@H](OC(C)=O)/C=C/[C@@](C)(O)C(=O)[C@@H](C)C/C=C/[C@H]3[C@@H]1O [cytochalasin D] | appeared to be toxic
COC[C@H]1OC(=O)c2coc3c2[C@@]1(C)C1=C(C3=O)[C@@H]2CCC(=O)[C@@]2(C)C[C@H]1OC(C)=O [wortmannin] | appeared to be toxic
